Measured values reported in ChEMBL document CHEMBL4321825, “Discovery of a Series of 5-Azaquinazolines as Orally Efficacious IRAK4 Inhibitors Targeting MyD88L265P Mutant Diffuse Large B Cell Lymphoma” (J Med Chem, 2019).
In brackets after ≈: the same amount, converted by molar mass. Activity calls are given as the source filed them. The rule behind the calls is not given here.

Key:
[1] = system: OCI-Ly10; test: Growth inhibition of human OCI-LY10 cells at 3.3 uM incubated for 3 days by Alamar blue dye based fluorescence assay (reference value: 3%); assay type: functional; conditions: OCI-Ly10, 72 h, read-out: GI
[2] = Aqueous solubility in pH 7.4 phosphate buffer; assay type: physicochemical
[3] = species on record: Homo sapiens; test: Selectivity index, ratio of IC50 for inhibition of human recombinant CLK4 expressed in Baculovirus system to IC50 for inhibition of IRAK4 (unknown origin) in presence of 5 mM ATP by enzymatic assay
[4] = Unbound fraction in human plasma at 37 degC by equilibrium dialysis; assay type: ADME, cell-free
[5] = Intrinsic permeability in human Caco2 cells; assay type: ADME, cell-based; conditions: Caco-2
[6] = species on record: Homo sapiens; test: Selectivity index, ratio of IC50 for inhibition of human recombinant CLK1 expressed in Escherichia coli to IC50 for inhibition of IRAK4 (unknown origin) in presence of 5 mM ATP by enzymatic assay
[7] = species on record: Homo sapiens; test: Selectivity index, ratio of IC50 for inhibition of human recombinant CDK8/cyclinC expressed in Baculovirus system to IC50 for inhibition of IRAK4 (unknown origin) in presence of 5 mM ATP by enzymatic assay
[8] = target: T1, Interleukin-1 receptor-associated kinase 4 (Homo sapiens) (UniProt Q9NWZ3); test: Inhibition of IRAK4 in human OCI-LY10 cells assessed as decrease in pIKBalpha levels at 0.3 uM in presence of 3 nM ibrutinib incubated for 14 hrs by Western blotting analysis relative to control; assay type: cell-based
T1 sequence (whole entry): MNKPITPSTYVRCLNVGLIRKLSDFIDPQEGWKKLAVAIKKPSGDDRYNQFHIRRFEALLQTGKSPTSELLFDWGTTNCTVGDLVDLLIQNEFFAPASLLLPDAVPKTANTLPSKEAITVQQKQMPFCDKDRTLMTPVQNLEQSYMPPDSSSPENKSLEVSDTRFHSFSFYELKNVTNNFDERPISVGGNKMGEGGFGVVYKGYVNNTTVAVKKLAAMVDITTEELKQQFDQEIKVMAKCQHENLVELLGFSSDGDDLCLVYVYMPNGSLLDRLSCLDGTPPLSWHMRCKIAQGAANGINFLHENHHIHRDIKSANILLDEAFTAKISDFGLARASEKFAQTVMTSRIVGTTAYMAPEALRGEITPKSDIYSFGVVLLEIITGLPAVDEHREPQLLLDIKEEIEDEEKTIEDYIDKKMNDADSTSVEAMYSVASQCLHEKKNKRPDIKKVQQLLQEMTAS

[9] = species on record: Homo sapiens; test: Selectivity index, ratio of IC50 for inhibition of human recombinant CLK2 expressed in Baculovirus system to IC50 for inhibition of IRAK4 (unknown origin) in presence of 5 mM ATP by enzymatic assay
[10] = Intrinsic clearance in human hepatocytes assessed per million cells; assay type: ADME, cell-based, Hepatocyte; conditions: read-out: CLH
[11] = target: T1, Interleukin-1 receptor-associated kinase 4 (Homo sapiens); test: Inhibition of IRAK4 (unknown origin) at 0.1 uM relative to control
[12] = target: T2, Interleukin-1 receptor-associated kinase 1 (Homo sapiens, UniProt P51617); test: Inhibition of IRAK1 (unknown origin)
Target sequence in this assay (P51617 whole entry): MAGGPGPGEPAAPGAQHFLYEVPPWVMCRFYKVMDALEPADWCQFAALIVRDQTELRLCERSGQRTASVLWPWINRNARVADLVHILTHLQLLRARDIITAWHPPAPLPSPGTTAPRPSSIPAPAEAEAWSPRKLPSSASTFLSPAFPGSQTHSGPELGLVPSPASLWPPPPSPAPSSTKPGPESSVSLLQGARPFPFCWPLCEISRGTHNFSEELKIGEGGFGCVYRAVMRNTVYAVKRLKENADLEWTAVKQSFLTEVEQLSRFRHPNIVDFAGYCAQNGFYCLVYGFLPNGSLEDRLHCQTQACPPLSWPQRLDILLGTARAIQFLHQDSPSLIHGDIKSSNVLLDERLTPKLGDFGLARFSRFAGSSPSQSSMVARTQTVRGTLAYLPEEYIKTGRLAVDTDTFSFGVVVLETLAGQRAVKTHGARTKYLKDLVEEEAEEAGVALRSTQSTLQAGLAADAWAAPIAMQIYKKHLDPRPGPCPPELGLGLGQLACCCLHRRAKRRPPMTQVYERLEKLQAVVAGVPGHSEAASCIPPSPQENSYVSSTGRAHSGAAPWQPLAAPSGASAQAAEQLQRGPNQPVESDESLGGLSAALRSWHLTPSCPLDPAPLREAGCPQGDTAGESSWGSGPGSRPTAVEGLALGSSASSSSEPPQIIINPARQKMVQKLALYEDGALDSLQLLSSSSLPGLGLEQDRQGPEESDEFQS

[13] = target: T3, Interleukin-1 receptor-associated kinase 4 (Homo sapiens, UniProt Q9NWZ3); test: Inhibition of IRAK4 (unknown origin) by cell based assay
T3 sequence (Q9NWZ3 whole entry): T1 sequence (whole entry)

[14] = target: CDK8/Cyclin C (Homo sapiens, UniProt P49336); test: Inhibition of human recombinant CDK8/cyclinC expressed in Baculovirus system
[15] = target: Dual specificity protein kinase CLK2 (Homo sapiens, UniProt P49760); test: Inhibition of human recombinant CLK2 expressed in Baculovirus system
[16] = species on record: Homo sapiens; test: Selectivity index, ratio of IC50 for inhibition of CDK9 (unknown origin) to IC50 for inhibition of IRAK4 (unknown origin) in presence of 5 mM ATP by enzymatic assay
[17] = target: T3, Interleukin-1 receptor-associated kinase 4; test: Inhibition of IRAK4 (unknown origin) in presence of 5 mM ATP by enzymatic assay
[18] = Intrinsic clearance in rat hepatocytes assessed per million cells; assay type: ADME, cell-based, Hepatocyte; conditions: read-out: CLH
[19] = system: OCI-LY19; test: Growth inhibition of human OCI-LY19 cells at 0.13 uM incubated for 3 days by Alamar blue dye based fluorescence assay (reference value: 3%); assay type: functional; conditions: OCI-LY19, 72 h, read-out: GI
[20] = Volume of distribution at steady state in Han Wistar rat at 1 mg/kg, iv; assay type: ADME, organism-based; conditions: in vivo, read-out: Vdss
[21] = system: OCI-Ly10; test: Antitumor activity against human OCI-LY10 cells xenografted in CB.17 SCID mouse assessed as inhibition of tumor growth at 100 mg/kg, po QD dosed 34 days after tumor cell inoculation; assay type: functional, organism-based
[22] = system: OCI-LY19; test: Growth inhibition of human OCI-LY19 cells at 0.33 uM incubated for 3 days by Alamar blue dye based fluorescence assay (reference value: 3%); assay type: functional; conditions: OCI-LY19, 72 h, read-out: GI
[23] = target: T2, Interleukin-1 receptor-associated kinase 1; test: Inhibition of IRAK1 (unknown origin) at 0.1 uM relative to control
Target sequence in this assay (P51617 whole entry, looked up): as the sequence (P51617 whole entry) above

[24] = system: OCI-LY19; test: Growth inhibition of human OCI-LY19 cells at 1.7 uM incubated for 3 days by Alamar blue dye based fluorescence assay (reference value: 3%); assay type: functional; conditions: OCI-LY19, 72 h, read-out: GI
[25] = system: OCI-Ly10; test: Growth inhibition of human OCI-LY10 cells at 1.7 uM incubated for 3 days by Alamar blue dye based fluorescence assay (reference value: 3%); assay type: functional; conditions: OCI-Ly10, 72 h, read-out: GI
[26] = Plasma clearance in Han Wistar rat at 1 mg/kg, iv; assay type: ADME, organism-based
[27] = Unbound fraction in mouse plasma at 37 degC by equilibrium dialysis; assay type: ADME, cell-free
[28] = Unbound fraction in rat plasma at 37 degC by equilibrium dialysis; assay type: ADME, cell-free
[29] = system: OCI-Ly10; test: Antitumor activity against human OCI-LY10 cells xenografted in CB.17 SCID mouse assessed as induction of tumor regression at 100 mg/kg, po QD dosed 34 days after tumor cell inoculation and co-treated with 12 mg/kg, po QD ibrutinib; assay type: functional, organism-based
[30] = target: Cyclin-dependent kinase 7 (Homo sapiens, UniProt P50613); test: Inhibition of CDK7 (unknown origin)
[31] = target: Dual specificity protein kinase CLK4 (Homo sapiens, UniProt Q9HAZ1); test: Inhibition of human recombinant CLK4 expressed in Baculovirus system
[32] = Oral bioavailability in Han Wistar rat at 2 mg/kg; assay type: ADME, organism-based; conditions: in vivo
[33] = target: Dual specificity protein kinase CLK1 (Homo sapiens, UniProt P49759); test: Inhibition of human recombinant CLK1 expressed in Escherichia coli
[34] = species on record: Homo sapiens; test: Selectivity index, ratio of IC50 for inhibition of IRAK1 (unknown origin) to IC50 for inhibition of IRAK4 (unknown origin) in presence of 5 mM ATP by enzymatic assay
[35] = system: OCI-Ly10; test: Growth inhibition of human OCI-LY10 cells at 0.33 uM incubated for 3 days by Alamar blue dye based fluorescence assay (reference value: 3%); assay type: functional; conditions: OCI-Ly10, 72 h, read-out: GI
[36] = system: OCI-LY19; test: Growth inhibition of human OCI-LY19 cells at 10 uM incubated for 3 days by Alamar blue dye based fluorescence assay (reference value: 3%); assay type: functional; conditions: OCI-LY19, 72 h, read-out: GI
[37] = Lipophilicity, logD of the compound at pH 7.4 by shake-flask assay; assay type: physicochemical; conditions: buffer
[38] = target: Dual specificity protein kinase CLK3 (Homo sapiens, UniProt P49761); test: Inhibition of human recombinant CLK3 expressed in Baculovirus system
[39] = system: OCI-Ly10; test: Growth inhibition of human OCI-LY10 cells at 10 uM incubated for 3 days by Alamar blue dye based fluorescence assay (reference value: 3%); assay type: functional; conditions: OCI-Ly10, 72 h, read-out: GI
[40] = system: OCI-LY19; test: Growth inhibition of human OCI-LY19 cells at 3.3 uM incubated for 3 days by Alamar blue dye based fluorescence assay (reference value: 3%); assay type: functional; conditions: OCI-LY19, 72 h, read-out: GI
[41] = species on record: Homo sapiens; test: Selectivity index, ratio of IC50 for inhibition of CDK7 (unknown origin) to IC50 for inhibition of IRAK4 (unknown origin) in presence of 5 mM ATP by enzymatic assay
[42] = AUC in SCID mouse at 50 mg/kg, po; assay type: ADME, organism-based; conditions: in vivo
[43] = species on record: Homo sapiens; test: Selectivity index, ratio of IC50 for inhibition of human recombinant CLK3 expressed in Baculovirus system to IC50 for inhibition of IRAK4 (unknown origin) in presence of 5 mM ATP by enzymatic assay
[44] = Efflux ratio in human Caco2 cells; assay type: ADME, cell-based; conditions: Caco-2
[45] = system: OCI-Ly10; test: Growth inhibition of human OCI-LY10 cells at 0.13 uM incubated for 3 days by Alamar blue dye based fluorescence assay (reference value: 3%); assay type: functional; conditions: OCI-Ly10, 72 h, read-out: GI
[46] = target: Cyclin-dependent kinase 9 (Homo sapiens, UniProt P50750); test: Inhibition of CDK9 (unknown origin)
Chain of Cyclin-dependent kinase 9 (P50750 whole entry): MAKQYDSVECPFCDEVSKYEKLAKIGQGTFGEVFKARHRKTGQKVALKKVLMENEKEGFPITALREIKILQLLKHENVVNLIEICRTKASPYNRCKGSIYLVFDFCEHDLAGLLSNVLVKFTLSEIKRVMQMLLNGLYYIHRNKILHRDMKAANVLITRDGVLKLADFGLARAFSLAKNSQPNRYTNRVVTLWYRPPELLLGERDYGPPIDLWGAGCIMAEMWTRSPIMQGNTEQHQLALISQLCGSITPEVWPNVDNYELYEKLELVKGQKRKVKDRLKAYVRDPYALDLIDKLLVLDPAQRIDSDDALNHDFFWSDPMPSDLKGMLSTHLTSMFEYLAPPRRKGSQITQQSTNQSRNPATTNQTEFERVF

Chain of CDK8/Cyclin C (P49336 whole entry): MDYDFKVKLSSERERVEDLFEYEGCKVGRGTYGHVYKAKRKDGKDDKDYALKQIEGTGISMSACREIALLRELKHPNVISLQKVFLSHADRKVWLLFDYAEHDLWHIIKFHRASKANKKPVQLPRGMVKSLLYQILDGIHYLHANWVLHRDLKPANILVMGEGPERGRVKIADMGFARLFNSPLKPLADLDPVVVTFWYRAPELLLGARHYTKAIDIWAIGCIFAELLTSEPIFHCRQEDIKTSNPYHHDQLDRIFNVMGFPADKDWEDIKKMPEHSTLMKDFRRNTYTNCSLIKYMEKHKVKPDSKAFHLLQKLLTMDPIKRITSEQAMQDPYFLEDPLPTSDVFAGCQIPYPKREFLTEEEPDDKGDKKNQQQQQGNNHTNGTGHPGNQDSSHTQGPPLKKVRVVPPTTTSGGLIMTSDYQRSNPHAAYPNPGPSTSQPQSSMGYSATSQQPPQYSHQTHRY
Chain of CDK8/Cyclin C (P24863 whole entry, further chain): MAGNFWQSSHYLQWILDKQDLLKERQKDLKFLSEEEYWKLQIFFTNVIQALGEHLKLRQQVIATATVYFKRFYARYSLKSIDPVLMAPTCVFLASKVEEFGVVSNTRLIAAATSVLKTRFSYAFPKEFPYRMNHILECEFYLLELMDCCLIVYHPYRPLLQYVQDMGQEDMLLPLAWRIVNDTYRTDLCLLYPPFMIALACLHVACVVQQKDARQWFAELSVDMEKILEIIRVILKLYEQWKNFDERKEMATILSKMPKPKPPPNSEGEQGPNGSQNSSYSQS
Chain of Dual specificity protein kinase CLK3 (P49761 whole entry): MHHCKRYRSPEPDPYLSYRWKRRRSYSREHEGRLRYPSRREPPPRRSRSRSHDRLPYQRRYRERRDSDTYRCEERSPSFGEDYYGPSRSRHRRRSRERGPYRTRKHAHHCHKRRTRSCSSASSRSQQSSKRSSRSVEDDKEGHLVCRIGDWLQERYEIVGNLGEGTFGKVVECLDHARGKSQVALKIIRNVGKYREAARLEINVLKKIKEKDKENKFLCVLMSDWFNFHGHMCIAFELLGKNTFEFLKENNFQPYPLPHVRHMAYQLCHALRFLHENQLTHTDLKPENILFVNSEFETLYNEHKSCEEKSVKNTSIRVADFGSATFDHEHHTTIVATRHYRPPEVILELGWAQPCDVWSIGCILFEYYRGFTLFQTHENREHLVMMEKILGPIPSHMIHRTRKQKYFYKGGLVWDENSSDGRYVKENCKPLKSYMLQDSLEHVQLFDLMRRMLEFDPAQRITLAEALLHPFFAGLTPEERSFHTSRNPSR
Chain of Dual specificity protein kinase CLK4 (Q9HAZ1 whole entry): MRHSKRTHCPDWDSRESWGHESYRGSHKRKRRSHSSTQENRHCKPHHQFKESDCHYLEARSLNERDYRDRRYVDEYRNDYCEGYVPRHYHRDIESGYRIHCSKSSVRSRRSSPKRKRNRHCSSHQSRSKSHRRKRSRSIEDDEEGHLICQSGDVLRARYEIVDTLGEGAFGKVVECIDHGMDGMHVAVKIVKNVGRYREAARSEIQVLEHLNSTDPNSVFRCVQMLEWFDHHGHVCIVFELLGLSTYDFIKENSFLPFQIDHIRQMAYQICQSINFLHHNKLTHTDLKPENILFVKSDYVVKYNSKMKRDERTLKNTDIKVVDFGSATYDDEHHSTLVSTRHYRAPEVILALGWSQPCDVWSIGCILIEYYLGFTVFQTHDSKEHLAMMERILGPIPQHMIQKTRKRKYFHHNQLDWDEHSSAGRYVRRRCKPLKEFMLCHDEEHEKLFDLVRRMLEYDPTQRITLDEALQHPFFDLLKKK
Chain of Dual specificity protein kinase CLK2 (P49760 whole entry): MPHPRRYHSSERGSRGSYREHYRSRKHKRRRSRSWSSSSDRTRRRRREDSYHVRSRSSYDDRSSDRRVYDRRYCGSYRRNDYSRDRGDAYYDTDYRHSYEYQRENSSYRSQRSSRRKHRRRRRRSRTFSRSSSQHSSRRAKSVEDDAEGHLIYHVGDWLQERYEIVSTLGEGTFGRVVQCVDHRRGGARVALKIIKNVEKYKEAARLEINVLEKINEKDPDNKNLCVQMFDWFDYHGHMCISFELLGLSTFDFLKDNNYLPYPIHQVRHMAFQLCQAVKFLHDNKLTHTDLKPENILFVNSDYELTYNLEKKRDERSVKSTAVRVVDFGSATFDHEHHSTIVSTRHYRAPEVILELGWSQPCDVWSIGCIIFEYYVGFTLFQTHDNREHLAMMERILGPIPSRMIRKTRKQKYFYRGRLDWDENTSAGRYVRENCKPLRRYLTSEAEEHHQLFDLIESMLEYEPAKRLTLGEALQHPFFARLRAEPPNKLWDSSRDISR
Chain of Dual specificity protein kinase CLK1 (P49759 whole entry): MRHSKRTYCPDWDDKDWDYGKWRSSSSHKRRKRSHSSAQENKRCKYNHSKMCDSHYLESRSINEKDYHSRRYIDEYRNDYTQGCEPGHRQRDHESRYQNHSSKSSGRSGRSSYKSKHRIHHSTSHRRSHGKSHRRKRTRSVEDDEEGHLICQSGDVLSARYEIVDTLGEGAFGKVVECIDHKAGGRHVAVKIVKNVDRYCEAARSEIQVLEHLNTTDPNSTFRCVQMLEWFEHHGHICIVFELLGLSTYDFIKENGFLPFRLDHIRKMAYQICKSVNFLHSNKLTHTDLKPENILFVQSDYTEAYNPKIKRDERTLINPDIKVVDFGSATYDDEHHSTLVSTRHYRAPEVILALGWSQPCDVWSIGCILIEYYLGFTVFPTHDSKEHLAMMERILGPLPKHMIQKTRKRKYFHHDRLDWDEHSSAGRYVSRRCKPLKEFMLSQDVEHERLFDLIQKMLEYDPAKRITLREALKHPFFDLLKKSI
Chain of Cyclin-dependent kinase 7 (P50613 whole entry): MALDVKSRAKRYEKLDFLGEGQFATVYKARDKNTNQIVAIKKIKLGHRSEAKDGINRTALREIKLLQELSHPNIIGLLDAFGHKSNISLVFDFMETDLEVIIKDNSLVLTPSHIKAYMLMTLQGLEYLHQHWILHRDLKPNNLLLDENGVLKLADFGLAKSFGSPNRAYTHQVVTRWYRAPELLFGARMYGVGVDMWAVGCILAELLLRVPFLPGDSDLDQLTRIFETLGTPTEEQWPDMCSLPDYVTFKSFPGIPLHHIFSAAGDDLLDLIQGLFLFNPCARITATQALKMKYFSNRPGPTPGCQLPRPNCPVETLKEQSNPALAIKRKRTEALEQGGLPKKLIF

Compound: COC(=O)N1CCN([C@H]2CC[C@H](Nc3nc(Nc4cnn(C)c4)nc4ccc(CC#N)nc34)CC2)CC1
- inhibition of growth at 3.3 µM [1]: 44%
- solubility [2]: 29 µM (≈ 14.6 µg/mL)
- Ratio IC50 [3]: 250
- fraction unbound [4]: 0.3
- Papp [5]: 9.3 ×10⁻⁶ cm/s
- Ratio IC50 [6]: 775
- Ratio IC50 [7]: > 2500
- inhibition [8]: 100%
- Ratio IC50 [9]: 350
- hepatocyte CLint [10]: 10 µL/min/1e6 cells
- inhibition [11]: 104%
- IC50 [12]: 0.027 µM
- IC50 [13]: 0.046 µM
- IC50 [14]: > 10 µM
- IC50 [15]: 1.4 µM
- Ratio IC50 [16]: 3250
- IC50 [17]: 0.004 µM
- hepatocyte CLint [18]: 10 µL/min/1e6 cells
- inhibition of growth at 0.13 µM [19]: 6%
- Vd [20]: 4.5 L/kg
- TGI [21]: Active
- inhibition of growth at 0.33 µM [22]: 10%
- inhibition [23]: 70%
- inhibition of growth at 1.7 µM [24]: 31%
- inhibition of growth at 1.7 µM [25]: 25%
- clearance [26]: 25 mL/min/kg
- fraction unbound [27]: 0.44
- fraction unbound [28]: 0.23
- Activity [29]: Active
- IC50 [30]: 17 µM
- IC50 [31]: 1 µM
- bioavailability [32]: 10%
- IC50 [33]: 3.1 µM
- Ratio IC50 [34]: 6.8
- inhibition of growth at 0.33 µM [35]: 12%
- inhibition of growth at 10 µM [36]: 88%
- logD [37]: 2.3
- IC50 [38]: > 10 µM
- inhibition of growth at 10 µM [39]: 82%
- inhibition of growth at 3.3 µM [40]: 50%
- Ratio IC50 [41]: 4250
- AUC [42]: 23 µM·h
- Ratio IC50 [43]: > 2500
- efflux ratio [44]: 24
- inhibition of growth at 0.13 µM [45]: 8%
- IC50 [46]: 13 µM
